Some results are limits rather than exact numbers.

Data set [1] has as its target Dual specificity protein kinase CLK2 (Homo sapiens, UniProt P49760). Description: biochemical.
Data set [2] concerns the target Glycogen synthase kinase-3 beta (Homo sapiens, UniProt P49841). Put plainly: biochemical. In kind it is cell-based, Sf9.
The target of data set [3] is T1, Dual specificity tyrosine-phosphorylation-regulated kinase 2 (Homo sapiens, UniProt Q92630).
T1 sequence (Q92630 whole entry): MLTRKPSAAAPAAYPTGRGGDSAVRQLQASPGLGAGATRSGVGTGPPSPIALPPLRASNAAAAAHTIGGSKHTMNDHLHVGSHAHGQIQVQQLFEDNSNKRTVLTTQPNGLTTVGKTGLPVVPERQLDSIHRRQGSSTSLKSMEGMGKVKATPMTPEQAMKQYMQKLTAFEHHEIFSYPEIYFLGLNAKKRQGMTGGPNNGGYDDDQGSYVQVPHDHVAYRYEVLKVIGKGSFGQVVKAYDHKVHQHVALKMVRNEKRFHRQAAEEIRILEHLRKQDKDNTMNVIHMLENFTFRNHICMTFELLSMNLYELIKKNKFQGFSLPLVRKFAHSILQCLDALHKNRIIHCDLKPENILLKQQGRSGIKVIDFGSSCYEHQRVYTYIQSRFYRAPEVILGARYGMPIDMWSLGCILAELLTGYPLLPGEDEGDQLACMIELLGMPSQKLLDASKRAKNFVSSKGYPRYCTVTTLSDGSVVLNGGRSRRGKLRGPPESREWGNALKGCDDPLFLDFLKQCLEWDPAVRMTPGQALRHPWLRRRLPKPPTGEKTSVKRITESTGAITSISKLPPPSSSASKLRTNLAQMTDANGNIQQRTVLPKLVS
Description: biochemical. Format: cell-based, Sf9.

For data set [4], the target named is Cyclin-dependent kinase 5/CDK5 activator 1 (Homo sapiens, UniProt Q00535). Description: biochemical. Format: cell-based, Sf9.
Sequence of Cyclin-dependent kinase 5/CDK5 activator 1 (Q00535 whole entry): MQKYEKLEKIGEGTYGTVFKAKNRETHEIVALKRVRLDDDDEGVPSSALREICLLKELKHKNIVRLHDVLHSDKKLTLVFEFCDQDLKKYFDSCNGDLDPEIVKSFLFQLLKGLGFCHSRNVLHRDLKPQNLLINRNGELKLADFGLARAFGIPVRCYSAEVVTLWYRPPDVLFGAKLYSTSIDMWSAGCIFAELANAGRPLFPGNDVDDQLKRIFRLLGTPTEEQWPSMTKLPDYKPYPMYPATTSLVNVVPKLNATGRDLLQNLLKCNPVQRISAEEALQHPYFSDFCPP
Sequence of Cyclin-dependent kinase 5/CDK5 activator 1 (Q15078 whole entry, further chain): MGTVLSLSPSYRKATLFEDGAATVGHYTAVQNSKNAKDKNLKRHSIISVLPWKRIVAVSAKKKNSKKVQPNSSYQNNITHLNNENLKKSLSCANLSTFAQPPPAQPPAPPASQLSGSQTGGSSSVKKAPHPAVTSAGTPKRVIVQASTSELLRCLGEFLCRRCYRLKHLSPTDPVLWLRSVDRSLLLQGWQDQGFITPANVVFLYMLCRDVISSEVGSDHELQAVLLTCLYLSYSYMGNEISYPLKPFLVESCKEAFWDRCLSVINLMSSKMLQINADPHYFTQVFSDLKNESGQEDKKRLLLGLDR
A short description of data set [5]: in vitro. The following applies: mouse, ht-22.
For data set [6], the target named is Dual specificity protein kinase CLK4 (Homo sapiens, UniProt Q9HAZ1). Put plainly: biochemical.
Sequence of Dual specificity protein kinase CLK4 (Q9HAZ1 whole entry): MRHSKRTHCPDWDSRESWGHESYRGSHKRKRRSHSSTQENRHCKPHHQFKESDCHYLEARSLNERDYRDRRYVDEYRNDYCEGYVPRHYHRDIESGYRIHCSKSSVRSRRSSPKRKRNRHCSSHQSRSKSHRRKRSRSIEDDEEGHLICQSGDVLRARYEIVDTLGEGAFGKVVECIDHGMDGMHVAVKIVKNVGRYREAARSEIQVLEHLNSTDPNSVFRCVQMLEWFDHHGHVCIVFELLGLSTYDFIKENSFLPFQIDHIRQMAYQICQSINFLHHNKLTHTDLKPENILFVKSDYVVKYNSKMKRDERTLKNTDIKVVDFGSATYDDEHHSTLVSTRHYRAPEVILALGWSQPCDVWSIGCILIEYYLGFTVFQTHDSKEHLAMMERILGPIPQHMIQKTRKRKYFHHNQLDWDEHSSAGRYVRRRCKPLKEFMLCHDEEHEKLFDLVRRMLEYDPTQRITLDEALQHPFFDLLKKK
For data set [7], the target named is T2, Dual specificity tyrosine-phosphorylation-regulated kinase 4 (Homo sapiens, UniProt Q9NR20).
T2 sequence (Q9NR20 whole entry): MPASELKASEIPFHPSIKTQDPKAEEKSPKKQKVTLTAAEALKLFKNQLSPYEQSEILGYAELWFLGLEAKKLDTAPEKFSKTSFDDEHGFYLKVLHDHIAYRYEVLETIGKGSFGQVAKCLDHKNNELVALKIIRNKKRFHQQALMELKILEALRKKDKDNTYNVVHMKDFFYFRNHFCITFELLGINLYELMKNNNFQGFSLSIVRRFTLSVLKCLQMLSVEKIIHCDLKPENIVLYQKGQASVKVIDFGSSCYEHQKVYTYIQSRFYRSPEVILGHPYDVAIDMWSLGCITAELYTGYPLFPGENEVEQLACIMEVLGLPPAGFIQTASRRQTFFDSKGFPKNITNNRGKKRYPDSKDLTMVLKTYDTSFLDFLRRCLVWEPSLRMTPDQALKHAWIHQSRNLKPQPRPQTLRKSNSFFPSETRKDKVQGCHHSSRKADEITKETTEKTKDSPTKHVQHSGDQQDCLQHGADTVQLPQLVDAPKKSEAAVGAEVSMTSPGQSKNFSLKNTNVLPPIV
Description: biochemical. In kind it is cell-based, Sf9.

Data set [8] addresses T3, Dual specificity protein kinase CLK1 (Homo sapiens, UniProt P49759). Description: biochemical. Format: cell-based, Sf9.
The target in data set [9] is T4, Dual specificity tyrosine-phosphorylation-regulated kinase 3 (Homo sapiens, UniProt O43781).
T4 sequence (O43781 whole entry): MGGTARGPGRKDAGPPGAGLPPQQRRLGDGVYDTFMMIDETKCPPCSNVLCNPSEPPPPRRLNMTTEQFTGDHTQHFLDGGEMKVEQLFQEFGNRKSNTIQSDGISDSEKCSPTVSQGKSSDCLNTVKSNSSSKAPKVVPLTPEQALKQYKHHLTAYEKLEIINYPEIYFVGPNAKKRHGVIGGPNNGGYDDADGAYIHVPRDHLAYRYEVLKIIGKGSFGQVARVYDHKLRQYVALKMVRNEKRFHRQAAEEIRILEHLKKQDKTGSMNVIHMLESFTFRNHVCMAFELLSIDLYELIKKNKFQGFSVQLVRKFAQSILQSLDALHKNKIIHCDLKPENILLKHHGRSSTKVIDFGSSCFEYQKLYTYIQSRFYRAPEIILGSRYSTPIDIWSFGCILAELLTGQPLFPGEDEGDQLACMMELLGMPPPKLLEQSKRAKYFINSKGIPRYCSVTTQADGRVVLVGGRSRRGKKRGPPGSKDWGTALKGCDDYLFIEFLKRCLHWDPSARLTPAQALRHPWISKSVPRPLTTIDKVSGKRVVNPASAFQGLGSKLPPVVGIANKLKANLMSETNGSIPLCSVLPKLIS
Description: biochemical. Format: cell-based, Sf9.

Data set [10] deals with Dual specificity protein kinase CLK3 (Homo sapiens, UniProt P49761). Description: biochemical. In kind it is cell-based, Sf9.
Sequence of Dual specificity protein kinase CLK3 (P49761 whole entry, canonical isoform): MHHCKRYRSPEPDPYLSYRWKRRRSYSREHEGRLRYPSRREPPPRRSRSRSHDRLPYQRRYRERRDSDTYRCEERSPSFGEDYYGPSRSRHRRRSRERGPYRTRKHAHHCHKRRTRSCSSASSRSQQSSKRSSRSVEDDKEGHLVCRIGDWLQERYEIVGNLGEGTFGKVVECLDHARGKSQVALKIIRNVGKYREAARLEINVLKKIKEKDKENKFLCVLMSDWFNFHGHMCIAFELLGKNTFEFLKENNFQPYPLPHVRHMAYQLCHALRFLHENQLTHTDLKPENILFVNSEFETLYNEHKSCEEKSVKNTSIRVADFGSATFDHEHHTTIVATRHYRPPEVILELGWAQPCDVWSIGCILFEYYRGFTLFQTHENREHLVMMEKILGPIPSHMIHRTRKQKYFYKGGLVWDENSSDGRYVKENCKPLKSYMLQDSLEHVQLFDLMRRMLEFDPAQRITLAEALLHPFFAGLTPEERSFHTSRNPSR
The target of data set [11] is Casein kinase I isoform epsilon (Homo sapiens, UniProt P49674). Put plainly: biochemical. Format: cell-based, Sf9.
Sequence of Casein kinase I isoform epsilon (P49674 whole entry, canonical isoform): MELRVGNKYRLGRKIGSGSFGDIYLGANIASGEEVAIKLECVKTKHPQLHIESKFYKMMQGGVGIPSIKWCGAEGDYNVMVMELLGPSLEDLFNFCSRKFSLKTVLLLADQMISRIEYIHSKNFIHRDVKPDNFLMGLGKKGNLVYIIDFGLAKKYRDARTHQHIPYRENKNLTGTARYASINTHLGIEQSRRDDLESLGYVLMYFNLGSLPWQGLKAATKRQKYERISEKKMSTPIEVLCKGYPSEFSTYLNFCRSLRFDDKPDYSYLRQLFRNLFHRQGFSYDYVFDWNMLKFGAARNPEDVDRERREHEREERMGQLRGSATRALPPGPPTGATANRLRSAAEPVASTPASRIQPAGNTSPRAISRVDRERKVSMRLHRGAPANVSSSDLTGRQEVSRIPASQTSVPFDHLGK
The target of data set [12] is T5, Dual specificity tyrosine-phosphorylation-regulated kinase 1A (Homo sapiens, UniProt Q13627). Description: biochemical.
Data set [13] has as its target T5, Dual specificity tyrosine-phosphorylation-regulated kinase 1A.
Data set [14] has as its target T3, Dual specificity protein kinase CLK1. Description: biochemical. In kind it is cell-based, Sf9. The following applies: read-out: IC50.

T3 sequence (P49759 whole entry): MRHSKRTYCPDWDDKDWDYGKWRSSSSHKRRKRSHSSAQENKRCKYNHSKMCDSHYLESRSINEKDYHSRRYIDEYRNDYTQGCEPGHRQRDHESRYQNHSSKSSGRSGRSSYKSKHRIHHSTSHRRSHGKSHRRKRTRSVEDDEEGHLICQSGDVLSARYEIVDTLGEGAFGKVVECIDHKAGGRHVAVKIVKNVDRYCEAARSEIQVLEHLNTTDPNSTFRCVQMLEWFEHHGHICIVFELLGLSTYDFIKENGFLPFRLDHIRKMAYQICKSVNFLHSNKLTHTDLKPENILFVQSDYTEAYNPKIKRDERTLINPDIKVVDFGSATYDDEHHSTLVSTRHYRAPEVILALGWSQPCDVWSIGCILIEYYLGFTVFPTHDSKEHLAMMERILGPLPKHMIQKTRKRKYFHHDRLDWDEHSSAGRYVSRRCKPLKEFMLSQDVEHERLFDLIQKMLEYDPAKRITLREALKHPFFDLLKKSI
Sequence of Glycogen synthase kinase-3 beta (P49841 whole entry): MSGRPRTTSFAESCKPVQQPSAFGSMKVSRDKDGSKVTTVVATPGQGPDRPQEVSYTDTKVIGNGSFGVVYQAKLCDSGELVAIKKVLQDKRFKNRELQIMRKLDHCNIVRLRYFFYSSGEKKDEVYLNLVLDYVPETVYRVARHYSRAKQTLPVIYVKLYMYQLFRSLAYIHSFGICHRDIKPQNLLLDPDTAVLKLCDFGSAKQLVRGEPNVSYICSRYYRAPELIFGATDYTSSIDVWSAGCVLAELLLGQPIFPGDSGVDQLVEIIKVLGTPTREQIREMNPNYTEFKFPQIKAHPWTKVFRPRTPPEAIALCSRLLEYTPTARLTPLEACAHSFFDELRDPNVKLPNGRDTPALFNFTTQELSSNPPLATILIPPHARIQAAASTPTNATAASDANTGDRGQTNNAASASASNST
Sequence of Dual specificity protein kinase CLK2 (P49760 whole entry): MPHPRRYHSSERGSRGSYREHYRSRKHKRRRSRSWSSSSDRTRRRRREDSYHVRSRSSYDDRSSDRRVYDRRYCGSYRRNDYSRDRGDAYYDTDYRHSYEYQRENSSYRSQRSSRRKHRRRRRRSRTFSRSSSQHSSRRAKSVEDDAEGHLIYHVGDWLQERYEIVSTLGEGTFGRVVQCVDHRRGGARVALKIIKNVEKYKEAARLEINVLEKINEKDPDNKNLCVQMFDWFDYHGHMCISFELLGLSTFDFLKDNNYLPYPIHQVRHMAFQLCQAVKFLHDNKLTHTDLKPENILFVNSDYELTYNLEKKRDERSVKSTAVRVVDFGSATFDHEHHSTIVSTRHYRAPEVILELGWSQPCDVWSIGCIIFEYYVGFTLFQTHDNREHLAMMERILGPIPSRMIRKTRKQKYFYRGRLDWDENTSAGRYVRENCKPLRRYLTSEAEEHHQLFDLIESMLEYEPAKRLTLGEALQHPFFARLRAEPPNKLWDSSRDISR

On to `CCN(CC)Cc1ccc(OC)c(-c2cc3c(-c4ccc(C(=O)O)c(C(C)C)c4)ccnc3[nH]2)c1`, for which the IC50 (in general, the concentration that inhibits the measured activity by half) in data set [1] is 0.772 µM; in [2] it was 1.33 µM; in data set [3], over 10 µM; in [4], over 10 µM; in data set [6] it was 0.672 µM; in data set [7], over 10 µM. Further, the IC50 in data set [8] was 0.607 µM; in data set [9] it was over 10 µM; in data set [10], 2.41 µM; in [11] it was over 10 µM; in data set [12] it was 8.26 µM. Also, it took 8.1 µM to reach half-maximal inhibition in data set [5] (IC50 at 48 h).

As for `CCOc1ccc2nc(N3CCCN(C(=S)Nc4ccccc4F)CC3)c(C#N)cc2c1`, the IC50 in data set [1], in [2], in [3], in data set [4], in data set [6] and in data set [7] was over 10 µM throughout. For the same molecule, the IC50 in data set [8], in data set [9], in data set [10], in data set [11] and in [12] was over 10 µM in each case. In data set [5], this molecule registered an IC50 at 48 h of over 100 µM.

As for `CN1CCN(C(=O)C(C)(C)c2ccc(C(=O)Cc3cn4cc(-c5ccncc5)ccc4n3)cc2)CC1`, the IC50 in data set [1] was 0.147 µM; in [13] it was 0.0728 µM; in data set [2], over 10 µM; in data set [3], over 10 µM; in [4] it was over 10 µM; in data set [6], 0.0491 µM. The IC50 in [7] was over 10 µM; in data set [8] it was 0.107 µM; in data set [9], over 10 µM; in [14] it was 0.121 µM; in data set [10] it was 0.74 µM; in [11], over 10 µM. Also, in data set [12], the IC50 amounted to 0.253 µM. For the same molecule, the IC50 at 48 h in data set [5] was 7.9 µM.

On to `CC(C)(c1ccc(O)cc1)c1ccc(O)cc1` [BISPHENOL A], for which the IC50 in data set [1], in [2], in data set [3], in data set [4], in data set [6] and in [7] was over 10 µM each time. Besides, the IC50 in [8], in data set [9], in [10], in data set [11] and in data set [12] was over 10 µM in each case. Besides, the IC50 at 48 h in data set [5] turned out to be 97 µM.

Regarding `O=C(O[C@@H]1Cc2c(O)cc(O)cc2O[C@@H]1c1cc(O)c(O)c(O)c1)c1cc(O)c(O)c(O)c1` [EPIGALOCATECHIN GALLATE], the IC50 in [1] is 1.32 µM; in data set [13], 0.766 µM; in data set [2], 6.27 µM; in data set [3], 2 µM; in data set [4], 0.431 µM; in data set [6], 0.368 µM. In addition, the IC50 in [7] is 5.2 µM; in data set [8] it was 0.0716 µM; in data set [9], 1.62 µM; in data set [14], over 10 µM; in data set [10] it was 2.58 µM; in [11], 0.365 µM. Also, the IC50 in data set [12] worked out at 0.491 µM. Moreover, the midpoint of inhibition in [5], the IC50 at 48 h, lay at 23.8 µM.

For the molecule `COc1cc(CCc2c(O)ccc(O[C@@H]3O[C@H](CO)[C@@H](O)[C@H](O)[C@H]3O)c2C(C)=O)ccc1O` [SCORZODIHYDROSTILBENE A], the IC50 in data set [1], in data set [2], in data set [3], in data set [4], in data set [6] and in data set [7] was over 10 µM throughout. Besides, the IC50 in data set [8] is over 10 µM; in data set [9] it was over 10 µM; in data set [10] it was over 10 µM; in [11], over 10 µM; in data set [12] it was 2.3 µM. This molecule also registered an IC50 at 48 h in data set [5] of over 100 µM.

These data come from ChEMBL document CHEMBL5247649, “Comparative Efficacy and Selectivity of Pharmacological Inhibitors of DYRK and CLK Protein Kinases” (J Med Chem, 2023).
